{"source": "patent US9650616B2", "about": "“Methods for increasing grain yield” (University of Florida Research Foundation, Inc., priority 2014, dated 2017)", "key": {"[1]": {"target": "T1, maize endosperm AGPase, large subunit variant GGR (Q96G, D161G, A443R; numbering of SEQ ID NO: 20) (Zea mays, UniProt P55241+Q84PF5, A443R/D161G/Q96G)", "T1 sequence (P55241 46-516 A443R/D161G/Q96G)": "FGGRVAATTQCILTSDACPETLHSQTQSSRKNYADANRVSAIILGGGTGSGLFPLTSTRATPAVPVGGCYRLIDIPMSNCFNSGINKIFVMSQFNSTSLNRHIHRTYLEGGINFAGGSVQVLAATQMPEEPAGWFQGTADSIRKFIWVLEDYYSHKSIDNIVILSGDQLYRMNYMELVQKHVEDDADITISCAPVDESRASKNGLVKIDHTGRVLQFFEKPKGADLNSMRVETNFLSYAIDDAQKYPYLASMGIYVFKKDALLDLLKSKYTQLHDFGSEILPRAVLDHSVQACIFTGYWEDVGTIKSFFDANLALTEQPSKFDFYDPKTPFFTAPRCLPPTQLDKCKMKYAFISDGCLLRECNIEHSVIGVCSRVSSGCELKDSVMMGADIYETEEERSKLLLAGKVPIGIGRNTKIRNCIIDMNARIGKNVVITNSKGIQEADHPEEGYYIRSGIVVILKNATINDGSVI", "T1 sequence (Q84PF5 1-474)": "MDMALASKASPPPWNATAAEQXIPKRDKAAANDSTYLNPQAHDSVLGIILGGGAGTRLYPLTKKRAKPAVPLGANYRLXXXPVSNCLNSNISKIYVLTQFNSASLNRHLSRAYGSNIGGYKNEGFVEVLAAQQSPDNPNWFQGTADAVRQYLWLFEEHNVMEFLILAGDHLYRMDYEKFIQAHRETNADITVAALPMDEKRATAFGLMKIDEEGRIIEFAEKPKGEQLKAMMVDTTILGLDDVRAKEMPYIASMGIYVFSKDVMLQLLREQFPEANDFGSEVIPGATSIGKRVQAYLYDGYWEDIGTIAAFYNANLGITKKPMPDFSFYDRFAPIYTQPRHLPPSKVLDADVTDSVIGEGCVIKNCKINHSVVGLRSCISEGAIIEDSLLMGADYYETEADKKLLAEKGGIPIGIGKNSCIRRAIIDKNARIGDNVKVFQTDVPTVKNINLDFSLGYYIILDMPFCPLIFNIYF", "experiment": "Kinetic constants in the absence of 3-PGA, GGR", "type": "biochemical", "method": "Reactions were performed for 10 min and terminated by boiling. Blank mixtures contained everything except ATP.\nBased on the kinetic results (Table 10) and catalytic properties at 55° C. (Table 10) both D161G and GGR were selected for a more detailed kinetic analysis. […] The GGR mutant was primarily chosen based on its increased catalytic rate at 37° C. and high performance at 55° C. Its high activity in the absence of 3-PGA was also paramount. The first kinetic parameters determined were the Michaelis constants, the catalytic rate (kcat) and the dissociation constant (Kia) for the E-ATP complex, in the absence of 3-PGA. […] For the wt maize enzyme, this activator primarily responds by reducing the Km for both substrates, with little effect on the reaction rate (Boehlein et al., 2013). […] The kinetic mechanism established ATP as the first substrate to bind, thus the activator is no longer necessary for this first step. […] This variant also conditions both heat stability and high activity in the absence of an activator."}, "[2]": {"target": "T2, maize endosperm AGPase variant T142F (Zea mays, UniProt P55241+Q84PF5, T142F)", "T2 construct": "data of Boehlein et al., 2013", "T2 sequence (P55241 46-516 T142F)": "T1 sequence (P55241 46-516 A443R/D161G/Q96G) with G51Q, T97F, G116D, R398A", "T2 sequence (Q84PF5 1-474)": "T1 sequence (Q84PF5 1-474)", "experiment": "Apparent kinetic constants with 3-PGA, 37° C., T142F", "type": "biochemical", "conditions": "read-out: ATP Km, with 3-PGA, 37° C.", "method": "An endpoint assay was used to determine the rate of the AGPase reaction by coupling the formation of PPi to a decrease in NADH concentration (Boehlein et al., 2008). […] The Michaelis constants (Km) were obtained by varying one substrate in the presence of saturating concentrations of the second substrate. The activation constants were obtained by varying the activator at fixed levels of both substrates. All reactions were performed at 37° C. and mixes were prewarmed before starting the reaction with enzyme. […] The absorbance at 340 nm was monitored after 30 min and the amount of PPi produced was determined from a standard curve using PPi in complete reaction mixtures lacking AGPase. Blank samples contained complete reaction mixtures without enzyme and the change in absorbance between the blank and the reaction was used to calculate the amount of PPi produced. […]\nThe apparent Michaelis constant and maximum velocity of each reaction was calculated from a V vs. S plots using nonlinear regression analysis and the following equation, v=VmaxS/(Km+S), where v is the measured velocity, Vmax is the maximum velocity, S is the substrate concentration. […]\nEach mutant, comprising 1, 2, 3 or 4 changes, was grown in a large scale culture, expressed and purified according to standard procedures (Boehlein et al., 2005). […] Next, the activation constant, Ka, was determined for each of the mutant enzymes. […]"}}, "note": "Positions count from the first letter of the chain named.", "data": [{"smiles": "Nc1ncnc2c1ncn2[C@@H]1O[C@H](COP(=O)(O)OP(=O)(O)OP(=O)(O)O)[C@@H](O)[C@H]1O", "note": "[ATP]", "values": [{"measurement": "kcat", "setting": "[1]; ATP varied at fixed G-1-P", "value": 72.4, "unit": "s⁻¹"}, {"measurement": "Km", "setting": "[1]; read-out: ATP Km", "value": 100, "unit": "µM"}, {"measurement": "Km", "setting": "[2]", "value": 200, "unit": "µM"}]}]}
